Results: patent US7960375B2, “8-chloro-2,3-benzodiazepine derivatives” (priority 2003, dated 2011)

Experiments:
mice [1] = assay: Permanent focal cerebral ischemia in mice; type: in vivo; conditions: for Neuroprotective effect (necrotic brain surface area): 30 min after surgery, male NMRI mice, *p < 0.05; for dose that statistically significantly decreased the necrotic surface area: permanent focal ischemia, mice
Description: Permanent Focal Cerebral Ischemia in Mice
In these experiments a modified method of Karkoutly et al. (1990) was used. Male NMRI mice weighing 30-35 g were anaesthetized with 2,2,2-tribromoethanol at 500 mg/kg (20 ml/kg) administered i.p. The surgical procedure was performed according to Welsh et al. (1987). After drilling a hole into the skull the distal branch of the middle cerebral artery was electrocoagulated. Test compounds were administered i.p. 30 min after surgery. Two days later the animals were deeply anaesthetized with sodium pentobarbital (120 mg/kg i.p.). The brain was perfused through the left ventricle of the heart with a 4% solution of 2,3,5-triphenyltetrazolium chloride (TTC). One hour later the animals were decapitated, the brains were removed and placed into ice-cold saline for a few min. Then the brains were fixed in 8% formalin solution for 24 hours. The necrotic (non-stained with TTC) brain surface area was measured by means of an image analyser computer system (DigiCell for Windows 4.0). Statistical significance was assessed using ANOVA followed by Duncan's test.

[2] = Study of toxic effects in rats (body weight gain); type: in vivo; conditions: female Wistar rats, 15 mg/kg/day orally for 7 days; mean ± standard error of the mean; control 17.4 ± 1.4
Description: Study of Toxic Effects in Rats
The study was performed in female Wistar rats. On the day preceding the first treatment all animals were weighed and randomly allocated into treatment groups (10 animals/group). The test compounds were suspended in 0.4% hydroxymethyl cellulose solution (Methocell F4 M, Daw Chemical Company, USA) and were administered orally once a day for 7 days. The dose of non-chiral compounds according to the examples 8 and 9 was 15 mg/kg/day.
Animals of the control group were treated with the vehicle. The weight of the animals was registered every day. Weight gain was the difference between body weights on the first day and last day of the experiment. Toxicity of the test compounds was shown as a decrease in body weight or negative weight gain.
BWG=body weight gain: the difference between body weights on the first and last days of the experiment given as mean ± standard error of the mean.

mice [3] = assay: Maximal electroshock (MES) test in mice; type: in vivo; conditions: male NMRI mice, electroshock 30 min after ip. treatment
Description: Maximal Electroshock (MES) Test in Mice
The experiments were performed according to Swinyard et al. (1952). Male NMRI mice weighing 20 to 25 g were treated intraperitoneally with the test compounds administered in a volume of 10 ml/kg. […] The number of animals showing positive reaction was counted in each group. The dose of test substance causing 50% (ED50) inhibition was calculated according to the method of Litchfield and Wilcoxon (1949).
MES=maximal electroshock (in mice): electroshock of sufficient current intensity applied through corneal electrodes to mice causes tonic extensor convulsion of the hind legs.

| Compound | melting point [°C] | Neuroprotective effect (necrotic brain surface area) (mice [1]; dose 1.0 mg/kg ip.) | Neuroprotective effect (necrotic brain surface area) (mice [1]; dose 3.0 mg/kg ip.) | Neuroprotective effect (necrotic brain surface area) (mice [1]; dose 10.0 mg/kg ip.) | dose that statistically significantly decreased the necrotic surface area (mice [1]) [mg/kg i.p.] | BWG (body weight gain) [2] [g] | Neuroprotective effect (necrotic brain surface area) (mice [1]; dose 0.1 mg/kg ip.) | Neuroprotective effect (necrotic brain surface area) (mice [1]; dose 0.3 mg/kg ip.) | MES, ED50 (mice [3]) [mg/kg ip.] |
| --- | --- | --- | --- | --- | --- | --- | --- | --- | --- |
| CC(=O)N1N=C(c2ccc(N)c(C)c2)c2cc(Cl)ccc2C=C1C | 209 to 211 | – | – | – | – | – | – | – | – |
| CCC(=O)N1N=C(c2ccc(N)c(C)c2)c2cc(Cl)ccc2C=C1C | 218 to 221 | – | – | – | – | – | – | – | – |
| CC(=O)N1N=C(c2ccc(N)cc2)c2cc3c(cc2C=C1C)OCO3 [7-acetyl-5-(4-aminophenyl)-8-methyl-7H-1,3-dioxolo-[4,5-h][2,3]-benzodiazepine, reference compound] | – | −1 | −14 | −21* | 10 | – | – | – | – |
| CNC(=O)N1N=C(c2ccc(N)c(C)c2)c2cc(Cl)ccc2C=C1C [Example 8, 1-(4-Amino-3-methylphenyl)-8-chloro-4-methyl-3H-2,3-benzodiazepine-3-carboxylic acid methyl amide] | 210 to 212 | −17* | −15* | −22* | 0.3 | 9.9 ± 3.1 | −5 | −17* | 4.1 |
| CC1=Cc2ccc(Cl)cc2C(c2ccc(N)c(C)c2)=NN1C(=O)NC1CC1 [Example 9, 1-(4-Amino-3-methylphenyl)-8-chloro-4-methyl-3H-2,3-benzodiazepine-3-carboxylic acid cyclopropyl amide] | 233 to 236 | – | – | – | – | 17.7 ± 1.3 | – | – | 2.2 |
